# Values joined by “and” are separate entries in the source; they are usually repeats but may differ in a detail not shown here. Equal entries are not always repeated.
# Columns and labels:
# [1] = test system: NEDD8 downstream protein labeling in Sk-Luci6 cells; details: Sk-Luci6, increasing concentrations
# Protocol: (§1) Cells were washed twice with cold PBS and protein extracts were prepared using RIPA buffer with a protease and phosphatase inhibitor cocktail (Roche #11836153001, #04906845001). Protein concentrations were determined using the BCA protein quantification technique (BCA Protein assay kit, Pierce). In each assay, 30 μg of whole cell protein extract was resolved on a 10% SDS-polyacrylamide gel and transferred to a PVDF membrane (Bio-Rad). The membranes were blocked with SuperBlock (Thermo scientific; No. 37515) for at least 1 hr followed by an overnight incubation in primary antibody. Blots were probed with antibodies against UBA5 (abcam; ab109227) and UFM-1 (abcam; ab09305) in a 1:1000 dilution, and anti-β-actin (1:5000 dilution; Cell Signaling, 3700S) was used as a loading control. Fluorescent labeled secondary antibodies anti-rabbit Alexa Fluor® 647 Conjugate (red, 1:5000) and anti-mouse Alexa Fluor® 488 Conjugate (green, 1:20,000) were used to detect bands (Cell Signaling; 4414S and 4408S, respectively). The bands were visualized and analyzed using Image lab software (Bio-Rad).
# (§2) Bands were visualized using anti-rabbit Alexa Fluor® 647 (1:5000, for NEDD8 and NEDD8 conjugates) and anti-mouse Alexa Fluor® 488 (1:20,000, for actin) secondary antibodies.
# [2] = test system: NEDD8 downstream protein labeling in A549 cells; details: A549, increasing concentrations
# Protocol: as §1, §2
# [3] = molecular target: T1, Ub activating enzyme (UAE) (Homo sapiens, UniProt P22314); assay: UAE transthiolation assay (Ub transfer to His6-UbcH6); format: biochemical
# T1 construct: purchased Boston Biochem
# T1 sequence (P22314 1-1058): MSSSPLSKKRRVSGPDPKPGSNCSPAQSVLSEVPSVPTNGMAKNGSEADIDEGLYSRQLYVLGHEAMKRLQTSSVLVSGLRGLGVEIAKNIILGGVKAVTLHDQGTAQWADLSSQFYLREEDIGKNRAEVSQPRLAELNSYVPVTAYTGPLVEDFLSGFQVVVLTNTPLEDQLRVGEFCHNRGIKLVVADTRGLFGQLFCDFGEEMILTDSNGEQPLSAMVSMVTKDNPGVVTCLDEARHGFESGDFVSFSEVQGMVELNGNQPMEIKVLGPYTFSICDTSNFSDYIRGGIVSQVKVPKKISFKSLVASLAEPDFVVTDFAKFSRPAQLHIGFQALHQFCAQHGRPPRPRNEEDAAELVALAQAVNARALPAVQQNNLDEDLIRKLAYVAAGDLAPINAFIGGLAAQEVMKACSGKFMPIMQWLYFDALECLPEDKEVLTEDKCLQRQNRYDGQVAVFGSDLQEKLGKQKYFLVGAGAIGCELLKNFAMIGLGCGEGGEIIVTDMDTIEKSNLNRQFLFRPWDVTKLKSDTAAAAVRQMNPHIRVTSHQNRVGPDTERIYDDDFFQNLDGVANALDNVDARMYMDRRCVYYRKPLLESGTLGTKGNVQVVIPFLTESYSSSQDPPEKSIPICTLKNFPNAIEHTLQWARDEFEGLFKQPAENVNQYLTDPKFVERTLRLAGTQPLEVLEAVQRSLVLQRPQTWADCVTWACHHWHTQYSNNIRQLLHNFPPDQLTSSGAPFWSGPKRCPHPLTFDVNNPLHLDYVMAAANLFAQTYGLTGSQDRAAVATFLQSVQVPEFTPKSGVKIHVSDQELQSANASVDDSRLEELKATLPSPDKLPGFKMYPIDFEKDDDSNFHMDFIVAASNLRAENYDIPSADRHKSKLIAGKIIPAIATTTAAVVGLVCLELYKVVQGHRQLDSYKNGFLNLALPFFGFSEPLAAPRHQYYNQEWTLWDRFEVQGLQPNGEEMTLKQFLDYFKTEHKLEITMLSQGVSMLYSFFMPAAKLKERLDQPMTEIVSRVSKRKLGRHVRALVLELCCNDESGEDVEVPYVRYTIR
# Protocol: Initial rates were recorded over 30 second time intervals from 0 to 2.5 min (normal kinetics) or 0 to 5 min (inhibition kinetics). Reactions were initiated by the addition of ATP and stopped using 4× Laemmli sample buffer (BioRad). The generated protein conjugates were separated on a 10% non-degenerating SDS-polyacrylamide gel (4-15% gels were used for the UAE transthiolaton assay), followed by Western blot analysis, with the exception of GST-UBA5 where protein bands were detected using Coomassie™ Brilliant Blue R-250 staining or Stain-Free gel imaging for the enzymatic assays (Bio-Rad). Transfers for the UAE and NAE immunoblots were performed using nitrocellulose membranes and blocking and blotting was performed as described above with cellular protein extracts. The His6-tagged Ub-UBCH6 complex was detected using an anti-His mouse monoclonal primary antibody (1:500, abcam). A rabbit anti-NEDD8 polyclonal primary antibody (1:500, BostonBiochem) was used for the detection of the E2-NEDD8 complexes. […] Inhibitory data was fit to a dose-response curve (Y=Bottom+(Top−Bottom)/(1+10^(X-Log IC50))) using GraphPad Prism 6.
compound,measurement,setting,value
"Nc1ncnc2c1ncn2[C@@H]1O[C@H](C(=O)NCCCCCC(=O)N2CCNCCNCCNCC2)[C@@H](O)[C@H]1O.O=S(=O)([O-])C(F)(F)F.O=S(=O)([O-])C(F)(F)F.[Zn+2] [Compound 1.5.Zn, (2S,3S,4R,5R)—N-(6-(1,4,7,10-tetraazacyclododecan-1-yl)-6-oxohexyl)-5-(6-amino-9H-purin-9-yl)-3,4-dihydroxytetrahydrofuran-2-carboxamide zinc trifluoromethanesulfonate]",intracellular NAE inhibition (NEDD8 labeling),[1],no intracellular NAE inhibition
same,intracellular NAE inhibition (NEDD8 labeling),[2],no intracellular NAE inhibition
same,IC50,[3]; n=3-6,76.7 µM and 78.5 µM
same,selectivity for UBA5 over UAE,[3]; ratio of IC50,> 20 fold and ~20 fold

# From patent US10077284B2, “UBA5 inhibitors” (THE GOVERNING COUNCIL OF THE UNIVERSITY OF TORONTO, priority 2014, dated 2018)
